Numbers after ± are expanded uncertainties.
What was measured:
[1] = refractive index (Na D-line) (dimensionless); conditions: 101.33 kPa, Liquid, Standard Abbe refractometry
[2] = 101 kPa, Liquid, Vibrating tube method
[3] = refractive index (Na D-line) (dimensionless); φn = volume fraction of the nth substance listed; conditions: 101 kPa, Liquid, Standard Abbe refractometry, φ2 = 0
[4] = xn = mol fraction of the nth substance listed; conditions: 101 kPa, Liquid, Vibrating tube method, x2 = 0

Cc1ccccc1C [1,2-dimethylbenzene]
refractive index ([1]; 288.15 K): 1.50775 ± 0.00031 | refractive index ([1]; 298.15 K): 1.50257 ± 0.00031 | refractive index ([1]; 308.15 K): 1.49724 ± 0.00031 | refractive index ([1]; 318.15 K): 1.49201 ± 0.00031 | refractive index ([1]; 328.15 K): 1.48661 ± 0.00031 | mass density ([2]; 288.15 K): 884.07 ± 0.12 kg/m3 | mass density ([2]; 298.15 K): 875.67 ± 0.13 kg/m3 | mass density ([2]; 308.15 K): 867.3 ± 0.1 kg/m3 | mass density ([2]; 318.15 K): 858.81 ± 0.13 kg/m3 | mass density ([2]; 328.15 K): 850.24 ± 0.13 kg/m3

Cc1ccccc1C [1,2-dimethylbenzene] + C=C[Si]1(C)O[Si](C)(C=C)O[Si](C)(C=C)O[Si](C)(C=C)O1
refractive index ([3]; 288.15 K): 1.50775 ± 0.00031 | refractive index ([3]; 298.15 K): 1.50257 ± 0.00031 | refractive index ([3]; 308.15 K): 1.49724 ± 0.00031 | refractive index ([3]; 318.15 K): 1.49201 ± 0.00031 | refractive index ([3]; 328.15 K): 1.48661 ± 0.00031 | mass density ([4]; 288.15 K): 884.07 ± 0.12 kg/m3 | mass density ([4]; 298.15 K): 875.67 ± 0.13 kg/m3 | mass density ([4]; 308.15 K): 867.3 ± 0.1 kg/m3 | mass density ([4]; 318.15 K): 858.81 ± 0.13 kg/m3 | mass density ([4]; 328.15 K): 850.24 ± 0.13 kg/m3

Cc1cccc(C)c1 [1,3-dimethylbenzene]
refractive index ([1]; 288.15 K): 1.49969 ± 0.00031 | refractive index ([1]; 298.15 K): 1.49444 ± 0.00031 | refractive index ([1]; 308.15 K): 1.48894 ± 0.00031 | refractive index ([1]; 318.15 K): 1.48355 ± 0.00031 | refractive index ([1]; 328.15 K): 1.4782 ± 0.0003 | mass density ([2]; 288.15 K): 868.39 ± 0.13 kg/m3 | mass density ([2]; 298.15 K): 859.83 ± 0.13 kg/m3 | mass density ([2]; 308.15 K): 851.25 ± 0.13 kg/m3 | mass density ([2]; 318.15 K): 842.58 ± 0.13 kg/m3 | mass density ([2]; 328.15 K): 833.85 ± 0.14 kg/m3

Cc1cccc(C)c1 [1,3-dimethylbenzene] + C=C[Si]1(C)O[Si](C)(C=C)O[Si](C)(C=C)O[Si](C)(C=C)O1
refractive index ([3]; 288.15 K): 1.49969 ± 0.00031 | refractive index ([3]; 298.15 K): 1.49444 ± 0.00031 | refractive index ([3]; 308.15 K): 1.48894 ± 0.00031 | refractive index ([3]; 318.15 K): 1.48355 ± 0.00031 | refractive index ([3]; 328.15 K): 1.4782 ± 0.0003 | mass density ([4]; 288.15 K): 868.39 ± 0.13 kg/m3 | mass density ([4]; 298.15 K): 859.83 ± 0.13 kg/m3 | mass density ([4]; 308.15 K): 851.25 ± 0.13 kg/m3 | mass density ([4]; 318.15 K): 842.58 ± 0.13 kg/m3 | mass density ([4]; 328.15 K): 833.85 ± 0.14 kg/m3

Cc1ccc(C)cc1 [1,4-dimethylbenzene]
refractive index ([1]; 288.15 K): 1.49836 ± 0.00031 | refractive index ([1]; 298.15 K): 1.49298 ± 0.00031 | refractive index ([1]; 308.15 K): 1.48743 ± 0.00031 | refractive index ([1]; 318.15 K): 1.48202 ± 0.00031 | refractive index ([1]; 328.15 K): 1.47654 ± 0.00031 | mass density ([2]; 288.15 K): 865.3 ± 0.1 kg/m3 | mass density ([2]; 298.15 K): 856.62 ± 0.13 kg/m3 | mass density ([2]; 308.15 K): 847.97 ± 0.13 kg/m3 | mass density ([2]; 318.15 K): 839.21 ± 0.13 kg/m3 | mass density ([2]; 328.15 K): 830.39 ± 0.14 kg/m3

Cc1ccc(C)cc1 [1,4-dimethylbenzene] + C=C[Si]1(C)O[Si](C)(C=C)O[Si](C)(C=C)O[Si](C)(C=C)O1
refractive index ([3]; 288.15 K): 1.49836 ± 0.00031 | refractive index ([3]; 298.15 K): 1.49298 ± 0.00031 | refractive index ([3]; 308.15 K): 1.48743 ± 0.00031 | refractive index ([3]; 318.15 K): 1.48202 ± 0.00031 | refractive index ([3]; 328.15 K): 1.47654 ± 0.00031 | mass density ([4]; 288.15 K): 865.3 ± 0.1 kg/m3 | mass density ([4]; 298.15 K): 856.62 ± 0.13 kg/m3 | mass density ([4]; 308.15 K): 847.97 ± 0.13 kg/m3 | mass density ([4]; 318.15 K): 839.21 ± 0.13 kg/m3 | mass density ([4]; 328.15 K): 830.39 ± 0.14 kg/m3

C=C[Si]1(C)O[Si](C)(C=C)O[Si](C)(C=C)O[Si](C)(C=C)O1 (stereo not given) [2,4,6,8-tetramethyl-2,4,6,8-tetravinylcycloterasiloxane]
refractive index ([1]; 288.15 K): 1.43674 ± 0.00033 | refractive index ([1]; 298.15 K): 1.43202 ± 0.00033 | refractive index ([1]; 308.15 K): 1.4273 ± 0.0003 | refractive index ([1]; 318.15 K): 1.42257 ± 0.00033 | refractive index ([1]; 328.15 K): 1.41785 ± 0.00033 | mass density ([2]; 288.15 K): 992.74 ± 0.13 kg/m3 | mass density ([2]; 298.15 K): 982.54 ± 0.13 kg/m3 | mass density ([2]; 308.15 K): 972.34 ± 0.13 kg/m3 | mass density ([2]; 318.15 K): 962.14 ± 0.13 kg/m3 | mass density ([2]; 328.15 K): 951.94 ± 0.13 kg/m3

CCc1ccccc1 [ethylbenzene]
refractive index ([1]; 288.15 K): 1.49834 ± 0.00031 | refractive index ([1]; 298.15 K): 1.49297 ± 0.00031 | refractive index ([1]; 308.15 K): 1.48747 ± 0.00031 | refractive index ([1]; 318.15 K): 1.48202 ± 0.00031 | refractive index ([1]; 328.15 K): 1.47649 ± 0.00031 | mass density ([2]; 288.15 K): 871.31 ± 0.13 kg/m3 | mass density ([2]; 298.15 K): 862.55 ± 0.13 kg/m3 | mass density ([2]; 308.15 K): 853.75 ± 0.13 kg/m3 | mass density ([2]; 318.15 K): 844.87 ± 0.13 kg/m3 | mass density ([2]; 328.15 K): 835.93 ± 0.13 kg/m3

CCc1ccccc1 [ethylbenzene] + C=C[Si]1(C)O[Si](C)(C=C)O[Si](C)(C=C)O[Si](C)(C=C)O1
refractive index ([3]; 288.15 K): 1.49834 ± 0.00031 | refractive index ([3]; 298.15 K): 1.49297 ± 0.00031 | refractive index ([3]; 308.15 K): 1.48747 ± 0.00031 | refractive index ([3]; 318.15 K): 1.48202 ± 0.00031 | refractive index ([3]; 328.15 K): 1.47649 ± 0.00031 | mass density ([4]; 288.15 K): 871.31 ± 0.13 kg/m3 | mass density ([4]; 298.15 K): 862.55 ± 0.13 kg/m3 | mass density ([4]; 308.15 K): 853.75 ± 0.13 kg/m3 | mass density ([4]; 318.15 K): 844.87 ± 0.13 kg/m3 | mass density ([4]; 328.15 K): 835.93 ± 0.13 kg/m3

Reference: the NIST ThermoML archive (doi:10.1016/j.jct.2012.08.010)
